Experimental data from patent US9676721B2, “Compounds and compositions for the inhibition of NAMPT” (FORMA TM, LLC, priority 2010, dated 2017).

What was measured:
NAMPT = NAMPT (Homo sapiens (Human), UniProt P43490); experiment: Biochemical Inhibition Assay (NAMPT enzymatic reaction, NMN by mass spectrometry); conditions: recombinant His-tagged NAMPT 33 nM, 1 μM NAM, 30 minutes; read-out: Biochem IC50
Description: Biochemical Inhibition Assay NAMPT Protein Purification Recombinant His-tagged NAMPT was produced in E. coli cells, purified over a Ni column, and further purified over a size-exclusion column by XTAL Biostructures. The NAMPT Enzymatic Reaction The NAMPT enzymatic reactions were carried out in Buffer A (50 mM Hepes pH 7.5, 50 mM NaCl, 5 mM MgCl2, and 1 mM THP) in 96-well V-bottom plates. The compound titrations were performed in a separate dilution plate by serially diluting the compounds in DMSO to make a 100× stock. […] Background and signal strength was determined by addition (or non-addition) of a serial dilution of NMN to a pre-quenched enzyme and cofactor mix. Quantification of NMN A mass spectrometry-based assay was used to measure the NAMPT reaction product (NMN) and the internal control (L-Cystathionine). NMN and L-Cystathionine were detected using the services of Biocius Lifesciences with the RapidFire system. In short, the NMN and L-Cystathionine are bound to a graphitic carbon cartridge in 0.1% formic acid, eluted in 30% acetonitrile buffer, and injected into a Sciex 4000 mass spectrometer. The components of the sample were ionized with electrospray ionization and the positive ions were detected. […] The fragments are quantified and the analyzed by the following method. % Inhibitions are Determined Using this Method. First the NMN signal is normalized to the L-Cystathionine signal by dividing the NMN signal by the L-Cystathionine signal for each well. The signal from the background wells are averaged and subtracted from the test plates. […] IC50s are Determined Using Excel and this Formula.

A2780 cells = experiment: In-Vitro Cell Proliferation Assay (SRB); type: cell-based; conditions: Homo sapiens, A2780, 72 h
Description: In-Vitro Cell Proliferation Assay […] After overnight incubation at 37° C. and 5% CO2, the compound titrations were performed in a separate dilution plate by serially diluting the compounds in DMSO to make a 1000× stock. The compounds were then further diluted to 10× final concentration in culture media, whereupon 20 μL of each dilution was added to the plated cells with controls (e.g. DMSO and blank) to make a final volume of 200 μL. The final DMSO concentration in each well was 0.1%. The plates were then incubated for 72 hours at 37° C. in a 5% CO2 incubator. The number of viable cells was then assessed using sulforhodamine B (SRB) assay. Cells were fixed at 4° C. for 1 hour with the addition of 50 μL 30% trichloroacetic acid (TCA) to make a final concentration of 6% TCA. The plates were washed four times with H2O and allowed to dry for at least 1 hour, whereupon 100 μL of a […] SRB in 1% acetic acid solution was added to each well and incubated at room temperature for at least 30 minutes. The plates were then washed three times with 1% acetic acid, dried, and treated with 100 μL of 10 mM Tris-Base solution. The plates were then read in a microplate reader at an absorbance of 570 nm. Background was generated on a separate plate with media only. Method for Determining % Inhibition First, the signals from the background plate are averaged, then the background was subtracted from the test plates. […] Formula for Determining IC50 Values: […] Specificity of Cytotoxicity. Inhibition of NAMPT could be reversed by the addition of NAM or NMN. The specificity of the compounds were determined via cell viability assay in the presence of the compound and either NAM or NMN. Percent inhibitions were determined using the method given above.

Chain of NAMPT (P43490 whole entry): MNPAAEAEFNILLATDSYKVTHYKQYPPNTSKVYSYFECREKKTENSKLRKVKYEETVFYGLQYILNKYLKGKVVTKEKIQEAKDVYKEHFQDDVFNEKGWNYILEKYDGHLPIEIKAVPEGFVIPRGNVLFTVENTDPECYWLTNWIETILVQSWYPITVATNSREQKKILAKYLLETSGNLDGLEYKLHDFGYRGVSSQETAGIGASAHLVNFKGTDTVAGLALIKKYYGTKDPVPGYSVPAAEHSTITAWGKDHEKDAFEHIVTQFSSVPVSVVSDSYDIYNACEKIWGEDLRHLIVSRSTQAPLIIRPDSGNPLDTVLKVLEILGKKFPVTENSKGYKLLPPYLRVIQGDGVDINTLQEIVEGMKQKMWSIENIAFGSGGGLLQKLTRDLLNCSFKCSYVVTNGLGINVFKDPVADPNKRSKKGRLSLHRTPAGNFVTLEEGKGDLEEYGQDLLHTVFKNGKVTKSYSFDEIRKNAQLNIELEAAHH

| SMILES | IC50 (NAMPT) [nM] | IC50 (A2780 cells) [nM] |
| --- | --- | --- |
| CCCS(=O)(=O)Nc1cccc(S(=O)(=O)c2ccc(CNC(=NC#N)Nc3ccncc3)cc2)c1 [2-cyano-1-[(4-{[3-(propane-1-sulfonamido)benzene]sulfonyl}phenyl)methyl]-3-(pyridin-4-yl)guanidine] | 2.1 | 23.3 |
| CC(=O)c1ccc(S(=O)(=O)c2ccc(CNC(=NC#N)Nc3ccncc3)cc2)cc1 [1-({4-[(4-acetylbenzene)sulfonyl]phenyl}methyl)-2-cyano-3-(pyridin-4-yl)guanidine] | 5 | 7.3 |
| Cn1c(S(=O)(=O)c2ccc(CNC(=NC#N)Nc3ccncc3)cc2)cc2ccccc21 [2-cyano-1-{[4-(1-methyl-1H-indole-2-sulfonyl)phenyl]methyl}-3-(pyridin-4-yl)guanidine] | 2.1 | 1.2 |
| COc1cc(Cl)cc(S(=O)(=O)c2ccc(CNC(=NC#N)Nc3ccncc3)cc2)c1 [1-({4-[(3-chloro-5-methoxybenzene)sulfonyl]phenyl}methyl)-2-cyano-3-(pyridin-4-yl)guanidine] | 4.6 | 1.6 |
| Cc1ccc(S(=O)(=O)c2ccc(CNC(=NC#N)Nc3ccncc3)cc2)cc1C [2-cyano-1-({4-[(3,4-dimethylbenzene)sulfonyl]phenyl}methyl)-3-(pyridin-4-yl)guanidine] | 2.2 | 1.2 |
| CS(=O)(=O)c1ccc(S(=O)(=O)c2ccc(CNC(=NC#N)Nc3ccncc3)cc2)cc1 [2-cyano-1-({4-[(4-methanesulfonylbenzene)sulfonyl]phenyl}methyl)-3-(pyridin-4-yl)guanidine] | 4.5 | 13.1 |
| N#CN=C(NCc1ccc(S(=O)(=O)c2cc(Cl)cc(Cl)c2)cc1)Nc1ccncc1 [2-cyano-1-({4-[(3,5-dichlorobenzene)sulfonyl]phenyl}methyl)-3-(pyridin-4-yl)guanidine] | 11.2 | 1.6 |
| N#C/N=C(\NCCc1ccc(S(=O)(=O)c2ccccc2)cc1)Nc1ccncc1 [1-{2-[4-(benzenesulfonyl)phenyl]ethyl}-2-cyano-3-(pyridin-4-yl)guanidine] | 1 | 5.3 |
| N#CN=C(NCc1ccc(S(=O)(=O)c2ccc(F)c(F)c2)cc1)Nc1ccncc1 [2-cyano-1-({4-[(3,4-difluorobenzene)sulfonyl]phenyl}methyl)-3-(pyridin-4-yl)guanidine] | 0.8 | 2.5 |
| N#C/N=C(/NCc1cccnc1)Nc1ccc(S(=O)(=O)c2ccccc2)cc1 [1-[4-(benzenesulfonyl)phenyl]-2-cyano-3-(pyridin-3-ylmethyl)guanidine] | 32 | 2710 |
| COc1cc(F)cc(S(=O)(=O)c2ccc(CNC(=NC#N)Nc3ccncc3)cc2)c1 [2-cyano-1-({4-[(3-fluoro-5-methoxybenzene)sulfonyl]phenyl}methyl)-3-(pyridin-4-yl)guanidine] | 2.3 | 2.1 |
| CCOc1ccc(S(=O)(=O)c2ccc(CNC(=NC#N)Nc3ccncc3)cc2)cc1 [2-cyano-1-({4-[(4-ethoxybenzene)sulfonyl]phenyl}methyl)-3-(pyridin-4-yl)guanidine] | 5.6 | 3.3 |
| CCNC(=O)c1cccc(S(=O)(=O)c2ccc(CNC(=NC#N)Nc3ccncc3)cc2)c1 [3-[(4-{[2-cyano-3-(pyridin-4-yl)carbamimidamido]methyl}benzene)sulfonyl]-N-ethylbenzamide] | 5.4 | 27 |
| CC(C)NC(=O)c1cccc(S(=O)(=O)c2ccc(CNC(=NC#N)Nc3ccncc3)cc2)c1 [3-[(4-{[2-cyano-3-(pyridin-4-yl)carbamimidamido]methyl}benzene)sulfonyl]-N-(propan-2-yl)benzamide] | 4.3 | 16.9 |
| N#CN=C(NCc1ccc(S(=O)(=O)c2ccc(-n3cccn3)c(F)c2)cc1)Nc1ccncc1 [2-cyano-1-[(4-{[3-fluoro-4-(1H-pyrazol-1-yl)benzene]sulfonyl}phenyl)methyl]-3-(pyridin-4-yl)guanidine] |  | 9.4 |
| N#C/N=C(\NCc1ccc(S(=O)(=O)c2ccc(-c3ccccc3)cc2)cc1)Nc1ccncc1 [2-cyano-1-({4-[(4-phenylbenzene)sulfonyl]phenyl}methyl)-3-(pyridin-4-yl)guanidine] |  | 6.2 |
| N#CN=C(NCc1ccc(S(=O)(=O)c2cccc3c2OCO3)cc1)Nc1ccncc1 [1-{[4-(2H-1,3-benzodioxole-4-sulfonyl)phenyl]methyl}-2-cyano-3-(pyridin-4-yl)guanidine] |  | 9.4 |

Continued, values first:

| IC50 (NAMPT) [nM] | IC50 (A2780 cells) [nM] | SMILES |
| --- | --- | --- |
| 11.7 | 7.5 | N#CN=C(NCc1ccc(S(=O)(=O)c2ccccc2CN2CCOCC2)cc1)Nc1ccncc1 [2-cyano-1-[(4-{[2-(morpholin-4-ylmethyl)benzene]sulfonyl}phenyl)methyl]-3-(pyridin-4-yl)guanidine] |
| 1.8 | 3.3 | N#CN=C(NCc1ccc(S(=O)(=O)c2ccc3c(c2)OCO3)cc1)Nc1ccncc1 [1-{[4-(2H-1,3-benzodioxole-5-sulfonyl)phenyl]methyl}-2-cyano-3-(pyridin-4-yl)guanidine] |
| 1.3 | 6.1 | CN(C)S(=O)(=O)c1cccc(S(=O)(=O)c2ccc(CNC(=NC#N)Nc3ccncc3)cc2)c1 [2-cyano-1-[(4-{[3-(dimethylsulfamoyl)benzene]sulfonyl}phenyl)methyl]-3-(pyridin-4-yl)guanidine] |
| 8.6 | 7 | CN(C)c1ncc(S(=O)(=O)c2ccc(CNC(=NC#N)Nc3ccncc3)cc2)cn1 [2-cyano-1-({4-[2-(dimethylamino)pyrimidine-5-sulfonyl]phenyl}methyl)-3-(pyridin-4-yl)guanidine] |
| 1.2 | 0.8 | COc1cc(S(=O)(=O)c2ccc(CNC(=NC#N)Nc3ccncc3)cc2)ccc1C [2-cyano-1-({4-[(3-methoxy-4-methylbenzene)sulfonyl]phenyl}methyl)-3-(pyridin-4-yl)guanidine] |
| 5.3 | 1.9 | N#CN=C(NCc1ccc(S(=O)(=O)c2cc(F)cc(OCC(F)(F)F)c2)cc1)Nc1ccncc1 [2-cyano-1-[(4-{[3-fluoro-5-(2,2,2-trifluoroethoxy)benzene]sulfonyl}phenyl)methyl]-3-(pyridin-4-yl)guanidine] |
| 17 | 678 | N#C/N=C(\NCc1ccc(S(=O)(=O)c2ccccc2)cc1)NCc1cccnc1 [(E)-3-{[4-(benzenesulfonyl)phenyl]methyl}-2-cyano-1-(pyridin-3-ylmethyl)guanidine] |
| 3.5 |  | N#C/N=C(\NCc1ccc(S(=O)(=O)c2ccc(-c3ccccc3)cc2)cc1)Nc1ccncc1 [2-cyano-1-({4-[(4-phenylbenzene)sulfonyl]phenyl}methyl)-3-(p] [2-cyano-1-({4-[(4-phenylbenzene)sulfonyl]phenyl}methyl)-3-(pyridin-4-yl)guanidine] |
| 1 | 2 | COc1ccc(S(=O)(=O)c2ccc(CNC(=NC#N)Nc3ccncc3)cc2)cc1F [2-cyano-1-({4-[(3-fluoro-4-methoxybenzene)sulfonyl]phenyl}methyl)-3-(pyridin-4-yl)guanidine] |
| 4.5 | 3.3 | Cc1ccc(F)cc1S(=O)(=O)c1ccc(CNC(=NC#N)Nc2ccncc2)cc1 [2-cyano-1-({4-[(5-fluoro-2-methylbenzene)sulfonyl]phenyl}methyl)-3-(pyridin-4-yl)guanidine] |
| 6.5 | 65.8 | CCNC(=O)c1ccc(S(=O)(=O)c2ccc(CNC(=NC#N)Nc3ccncc3)cc2)cc1 [4-[(4-{[2-cyano-3-(pyridin-4-yl)carbamimidamido]methyl}benzene)sulfonyl]-N-ethylbenzamide] |
| 2.9 | 14.1 | N#CN=C(NCc1ccc(S(=O)(=O)c2cccc3cccnc23)cc1)Nc1ccncc1 [2-cyano-3-(pyridin-4-yl)-1-{[4-(quinoline-8-sulfonyl)phenyl]methyl}guanidine] |
